Key:
Format in all cases: biochemical
Kdr = molecular target: T1, Kdr (Homo sapiens, UniProt P35968); assay: Kinase inhibition assay (33P transfer), Kdr; details: Table 3; for IC50: read-out: KDR-1
T1 construct: Kinases are expressed as either kinase domains or full length constructs; made in house
Outline: (§1)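 GST/His-tagged kinase (domain or full length; E. coli or baculovirus) + [33P]ATP on plates coated with poly(Glu,Tyr) 4:1 or poly(Arg,Ser) 3:1; incubate, wash 0.5% H3PO4, add scintillant, count.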

Fyn = molecular target: T2, Fyn (Homo sapiens, UniProt P06241); assay: Kinase inhibition assay (33P transfer), Fyn; details: for IC50: read-out: Fyn-1
T2 construct: Kinases are expressed as either kinase domains or full length constructs; made in house
T2 sequence (P06241 whole entry, species assumed, the tested form may be a part): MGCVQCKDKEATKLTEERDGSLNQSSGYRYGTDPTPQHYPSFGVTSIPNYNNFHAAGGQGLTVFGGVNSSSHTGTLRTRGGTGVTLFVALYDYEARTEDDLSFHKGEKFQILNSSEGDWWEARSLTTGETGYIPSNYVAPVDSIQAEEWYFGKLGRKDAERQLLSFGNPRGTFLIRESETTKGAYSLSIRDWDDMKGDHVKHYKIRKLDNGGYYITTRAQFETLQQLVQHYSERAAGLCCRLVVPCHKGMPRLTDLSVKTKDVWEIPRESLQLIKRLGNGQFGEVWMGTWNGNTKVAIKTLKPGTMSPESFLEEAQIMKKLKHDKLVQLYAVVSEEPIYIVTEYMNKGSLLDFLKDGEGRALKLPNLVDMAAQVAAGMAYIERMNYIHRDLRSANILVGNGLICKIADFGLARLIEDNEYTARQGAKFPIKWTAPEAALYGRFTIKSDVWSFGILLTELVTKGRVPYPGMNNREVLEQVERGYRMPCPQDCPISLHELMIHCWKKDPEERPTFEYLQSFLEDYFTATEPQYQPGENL
Outline: (§2)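 Kinase domains or full-length enzymes, GST- or polyHis-tagged, were expressed in E. coli or baculovirus High Five cells and affinity-purified. Transfer of 33PO4 from ATP onto plate-bound poly(Glu,Tyr) 4:1 or poly(Arg,Ser) 3:1 was counted by liquid scintillation after a 0.5% phosphoric acid wash. IC50 = concentration halving incorporation.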

c-Met = molecular target: T3, c-Met (Homo sapiens, UniProt P08581); assay: Kinase inhibition assay (33P transfer), c-Met; details: Table 2, kinase inhibition class; for IC50: read-out: Met-1
T3 construct: Kinases are expressed as either kinase domains or full length constructs; made in house
Outline: as §2

PDGFRB = molecular target: T4, PDGFRB (Homo sapiens, UniProt P09619); assay: Kinase inhibition assay (33P transfer), PDGFRB; details: read-out: PDGFRB-1
T4 construct: Kinases are expressed as either kinase domains or full length constructs; made in house

FGFR1 = molecular target: T5, FGFR1 (Homo sapiens, UniProt P11362); assay: Kinase inhibition assay (33P transfer), FGFR1; details: read-out: FGFR1-1
T5 construct: Kinases are expressed as either kinase domains or full length constructs; made in house

Flt-1 = molecular target: T6, Flt-1 (Homo sapiens, UniProt P17948); assay: Kinase inhibition assay (33P transfer), Flt-1
T6 construct: Kinases are expressed as either kinase domains or full length constructs; made in house
T6 sequence (P17948 27-1338, species assumed): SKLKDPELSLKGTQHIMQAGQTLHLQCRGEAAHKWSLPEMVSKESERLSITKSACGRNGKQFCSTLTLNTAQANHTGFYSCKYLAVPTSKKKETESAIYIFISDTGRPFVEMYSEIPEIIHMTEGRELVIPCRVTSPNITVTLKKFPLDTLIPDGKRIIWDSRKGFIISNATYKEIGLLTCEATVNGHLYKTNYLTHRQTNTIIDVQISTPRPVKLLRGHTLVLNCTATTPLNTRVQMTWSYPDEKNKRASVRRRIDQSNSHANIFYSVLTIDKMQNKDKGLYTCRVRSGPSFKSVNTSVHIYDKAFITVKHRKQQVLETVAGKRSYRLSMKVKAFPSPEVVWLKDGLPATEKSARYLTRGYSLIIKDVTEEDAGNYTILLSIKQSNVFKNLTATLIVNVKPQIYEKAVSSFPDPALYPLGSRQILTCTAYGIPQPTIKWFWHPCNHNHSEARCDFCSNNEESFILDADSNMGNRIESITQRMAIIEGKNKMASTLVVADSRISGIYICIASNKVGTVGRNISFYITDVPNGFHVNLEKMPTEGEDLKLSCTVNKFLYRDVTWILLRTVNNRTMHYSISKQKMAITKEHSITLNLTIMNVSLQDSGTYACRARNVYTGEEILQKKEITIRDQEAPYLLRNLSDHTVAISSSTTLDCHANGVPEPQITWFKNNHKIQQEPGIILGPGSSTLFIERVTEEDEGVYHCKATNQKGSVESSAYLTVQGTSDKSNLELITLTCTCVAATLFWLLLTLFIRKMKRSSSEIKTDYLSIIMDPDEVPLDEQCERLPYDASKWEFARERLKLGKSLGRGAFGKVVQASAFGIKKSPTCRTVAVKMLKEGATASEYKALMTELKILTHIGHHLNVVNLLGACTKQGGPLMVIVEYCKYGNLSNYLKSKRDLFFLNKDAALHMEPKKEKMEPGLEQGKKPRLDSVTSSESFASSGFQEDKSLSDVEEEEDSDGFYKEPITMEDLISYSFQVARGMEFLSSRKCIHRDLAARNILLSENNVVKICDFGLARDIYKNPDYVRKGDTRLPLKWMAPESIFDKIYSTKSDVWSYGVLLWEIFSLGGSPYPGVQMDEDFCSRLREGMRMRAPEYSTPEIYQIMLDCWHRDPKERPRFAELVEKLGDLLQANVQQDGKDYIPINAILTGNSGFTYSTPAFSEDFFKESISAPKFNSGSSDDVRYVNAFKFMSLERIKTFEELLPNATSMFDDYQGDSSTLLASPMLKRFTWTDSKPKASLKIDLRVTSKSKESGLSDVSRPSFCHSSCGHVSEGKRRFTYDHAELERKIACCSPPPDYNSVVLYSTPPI
Outline: as §2

IGFR-1 = molecular target: T7, IGFR-1 (Homo sapiens, UniProt P08069); assay: Kinase inhibition assay (33P transfer), IGFR-1; details: Table 2, kinase inhibition class
T7 construct: Kinases are expressed as either kinase domains or full length constructs; made in house
T7 sequence (P08069 31-1367): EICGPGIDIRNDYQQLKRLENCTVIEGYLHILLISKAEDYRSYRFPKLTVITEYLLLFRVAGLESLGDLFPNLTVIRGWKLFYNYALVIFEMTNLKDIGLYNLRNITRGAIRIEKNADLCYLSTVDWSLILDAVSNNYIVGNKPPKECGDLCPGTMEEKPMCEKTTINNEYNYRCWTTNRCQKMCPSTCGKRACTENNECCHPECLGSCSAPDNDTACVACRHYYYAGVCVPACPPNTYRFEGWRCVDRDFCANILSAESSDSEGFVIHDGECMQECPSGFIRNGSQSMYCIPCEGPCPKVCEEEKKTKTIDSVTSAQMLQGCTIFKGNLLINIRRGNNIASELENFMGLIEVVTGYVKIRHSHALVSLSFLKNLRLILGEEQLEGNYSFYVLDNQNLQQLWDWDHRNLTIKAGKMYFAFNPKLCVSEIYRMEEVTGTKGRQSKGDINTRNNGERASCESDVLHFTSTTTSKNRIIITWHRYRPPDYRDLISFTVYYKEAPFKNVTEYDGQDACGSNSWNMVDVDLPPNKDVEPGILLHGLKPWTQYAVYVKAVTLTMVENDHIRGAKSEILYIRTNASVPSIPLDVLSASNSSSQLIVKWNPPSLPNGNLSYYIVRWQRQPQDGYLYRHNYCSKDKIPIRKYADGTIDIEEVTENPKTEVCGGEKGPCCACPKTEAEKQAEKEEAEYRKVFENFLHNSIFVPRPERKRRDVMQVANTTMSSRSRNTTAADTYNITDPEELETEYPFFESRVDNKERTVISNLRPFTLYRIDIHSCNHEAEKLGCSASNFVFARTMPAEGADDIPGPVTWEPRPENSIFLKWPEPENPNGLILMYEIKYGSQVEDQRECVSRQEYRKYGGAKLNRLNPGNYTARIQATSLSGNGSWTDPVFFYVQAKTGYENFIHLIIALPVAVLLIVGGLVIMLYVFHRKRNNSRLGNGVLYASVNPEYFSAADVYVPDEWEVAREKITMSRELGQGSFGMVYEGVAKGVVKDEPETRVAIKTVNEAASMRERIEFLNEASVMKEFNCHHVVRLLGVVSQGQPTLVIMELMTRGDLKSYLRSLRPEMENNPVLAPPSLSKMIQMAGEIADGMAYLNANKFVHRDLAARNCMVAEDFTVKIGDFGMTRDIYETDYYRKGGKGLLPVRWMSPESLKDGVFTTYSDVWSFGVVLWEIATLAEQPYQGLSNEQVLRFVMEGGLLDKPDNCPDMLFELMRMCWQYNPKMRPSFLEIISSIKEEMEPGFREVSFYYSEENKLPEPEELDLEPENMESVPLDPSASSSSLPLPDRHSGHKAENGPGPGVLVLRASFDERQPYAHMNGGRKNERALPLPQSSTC

Itk = molecular target: T8, Itk (Homo sapiens, UniProt Q08881); assay: Kinase inhibition assay (33P transfer), Itk; details: Table 3; for IC50: read-out: Itk-1
T8 construct: Kinases are expressed as either kinase domains or full length constructs; made in house
T8 sequence (Q08881 1-620): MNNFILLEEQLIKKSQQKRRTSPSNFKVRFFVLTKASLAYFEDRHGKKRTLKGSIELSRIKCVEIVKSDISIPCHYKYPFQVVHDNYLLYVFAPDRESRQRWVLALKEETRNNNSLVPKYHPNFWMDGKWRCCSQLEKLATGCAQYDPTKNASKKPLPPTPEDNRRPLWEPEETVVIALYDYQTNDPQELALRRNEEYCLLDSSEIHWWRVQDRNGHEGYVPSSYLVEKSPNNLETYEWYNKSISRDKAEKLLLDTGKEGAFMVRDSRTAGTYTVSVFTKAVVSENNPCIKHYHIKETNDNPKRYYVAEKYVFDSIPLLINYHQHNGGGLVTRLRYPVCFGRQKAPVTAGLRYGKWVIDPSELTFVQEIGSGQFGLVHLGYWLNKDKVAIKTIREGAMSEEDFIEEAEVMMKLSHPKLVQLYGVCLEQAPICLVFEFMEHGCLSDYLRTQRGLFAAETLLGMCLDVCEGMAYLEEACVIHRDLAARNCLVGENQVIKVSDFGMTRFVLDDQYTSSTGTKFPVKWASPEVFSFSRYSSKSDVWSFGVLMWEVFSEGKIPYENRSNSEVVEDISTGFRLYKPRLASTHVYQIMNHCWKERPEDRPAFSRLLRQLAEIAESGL
Outline: as §2

AKT = molecular target: T9, AKT (Homo sapiens, UniProt Q9Y243); assay: Kinase inhibition assay (33P transfer), AKT; details: Table 2, kinase inhibition class; for IC50: read-out: AKT3-1
T9 construct: Kinases are expressed as either kinase domains or full length constructs; made in house
T9 sequence (Q9Y243 whole entry, the tested form may be a part): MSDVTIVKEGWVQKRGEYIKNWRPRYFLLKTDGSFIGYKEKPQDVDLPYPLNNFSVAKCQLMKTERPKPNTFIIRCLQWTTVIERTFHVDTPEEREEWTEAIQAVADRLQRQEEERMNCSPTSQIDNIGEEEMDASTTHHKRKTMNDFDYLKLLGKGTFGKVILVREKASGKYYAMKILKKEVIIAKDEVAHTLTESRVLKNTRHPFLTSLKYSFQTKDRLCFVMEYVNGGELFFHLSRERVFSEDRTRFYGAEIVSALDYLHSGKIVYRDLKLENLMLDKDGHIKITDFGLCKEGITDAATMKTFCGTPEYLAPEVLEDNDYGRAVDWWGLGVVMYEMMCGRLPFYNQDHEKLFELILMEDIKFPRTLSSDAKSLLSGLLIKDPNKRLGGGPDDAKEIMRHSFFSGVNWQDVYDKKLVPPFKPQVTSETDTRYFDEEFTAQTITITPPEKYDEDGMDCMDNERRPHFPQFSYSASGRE
Outline: as §1

ErbB4 = molecular target: T10, ErbB4 (Homo sapiens, UniProt Q15303); assay: Kinase inhibition assay (33P transfer), ErbB4; details: read-out: ErbB4-1
T10 construct: Kinases are expressed as either kinase domains or full length constructs; made in house

ErbB2 = molecular target: T11, ErbB2 (Homo sapiens, UniProt P04626); assay: Kinase inhibition assay (33P transfer), ErbB2; details: read-out: ErbB2-2
T11 construct: Kinases are expressed as either kinase domains or full length constructs; made in house
Outline: as §2

T1 sequence (P35968 20-1356, species assumed): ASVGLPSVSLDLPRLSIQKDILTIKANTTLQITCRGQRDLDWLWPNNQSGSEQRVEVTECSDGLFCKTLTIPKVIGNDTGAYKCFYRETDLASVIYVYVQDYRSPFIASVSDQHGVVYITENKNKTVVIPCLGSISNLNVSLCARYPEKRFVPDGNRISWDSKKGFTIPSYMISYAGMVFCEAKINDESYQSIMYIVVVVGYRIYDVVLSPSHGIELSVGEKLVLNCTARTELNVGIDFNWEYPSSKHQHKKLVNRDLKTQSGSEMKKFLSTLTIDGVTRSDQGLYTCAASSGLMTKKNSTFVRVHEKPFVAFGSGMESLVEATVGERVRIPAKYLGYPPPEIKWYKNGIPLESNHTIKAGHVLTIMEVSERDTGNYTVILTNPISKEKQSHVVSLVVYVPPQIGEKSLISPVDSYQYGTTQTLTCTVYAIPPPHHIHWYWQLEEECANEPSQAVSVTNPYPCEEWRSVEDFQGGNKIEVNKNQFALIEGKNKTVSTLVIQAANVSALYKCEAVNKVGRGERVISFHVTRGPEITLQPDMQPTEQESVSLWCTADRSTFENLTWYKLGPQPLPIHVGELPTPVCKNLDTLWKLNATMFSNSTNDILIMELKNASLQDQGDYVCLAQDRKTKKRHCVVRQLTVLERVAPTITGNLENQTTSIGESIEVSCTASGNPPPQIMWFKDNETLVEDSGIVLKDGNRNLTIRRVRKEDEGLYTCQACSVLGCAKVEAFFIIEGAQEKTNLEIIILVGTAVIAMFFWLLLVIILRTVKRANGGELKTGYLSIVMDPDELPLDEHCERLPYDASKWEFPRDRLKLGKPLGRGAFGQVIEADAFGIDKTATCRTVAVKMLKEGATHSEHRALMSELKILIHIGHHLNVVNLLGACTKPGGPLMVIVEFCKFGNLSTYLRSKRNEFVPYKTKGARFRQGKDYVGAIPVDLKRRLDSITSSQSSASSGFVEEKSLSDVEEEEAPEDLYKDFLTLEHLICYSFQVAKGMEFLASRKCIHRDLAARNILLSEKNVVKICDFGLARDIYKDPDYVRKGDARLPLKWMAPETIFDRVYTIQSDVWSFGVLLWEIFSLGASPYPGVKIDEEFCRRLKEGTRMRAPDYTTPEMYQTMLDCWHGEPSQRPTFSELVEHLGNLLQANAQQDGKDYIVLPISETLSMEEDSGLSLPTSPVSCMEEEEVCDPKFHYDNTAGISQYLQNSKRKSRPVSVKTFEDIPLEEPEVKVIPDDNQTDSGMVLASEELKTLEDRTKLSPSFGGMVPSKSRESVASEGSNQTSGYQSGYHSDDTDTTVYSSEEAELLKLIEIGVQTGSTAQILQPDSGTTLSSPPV

SMILES | IC50 (Kdr) | IC50 (Fyn) | IC50 (c-Met) | IC50 (PDGFRB) | IC50 (FGFR1) | IC50 (Flt-1) | IC50 (IGFR-1) | IC50 (Itk) | IC50 (AKT) | IC50 (ErbB4) | IC50 (ErbB2) | KDR-1 (Kdr) | Fyn-1 (Fyn) | Met-1 (c-Met) | IGFR-1 (IGFR-1) | Itk-1 (Itk) | AKT3-1 (AKT)
COc1cc(Nc2ncnc(N3CCc4ccccc43)n2)cc(OC)c1OC [Compound 184] | < 1.05 µM | 1.05 to 6.33 µM | 9.22 to 11.9 µM | < 1.05 µM | 6.33 to 9.22 µM | < 1.05 µM | > 11.9 µM | > 11.9 µM | > 11.9 µM | – | – | – | – | – | – | – | –
COc1ccc(Nc2ncnc(N(C/C=C/c3ccccc3)c3ccc(Cl)cc3)n2)cc1OC [Compound 974] | 0.844 to 5.06 µM | > 9.49 µM | > 9.49 µM | > 9.49 µM | 5.06 to 7.38 µM | > 9.49 µM | > 9.49 µM | > 9.49 µM | > 9.49 µM | > 9.49 µM | – | – | – | – | – | – | –
COc1cc(Nc2ncnc(Nc3ccc(C(=O)O)cc3)n2)cc(OC)c1OC [Compound 104] | 1.01 to 6.04 µM | 1.01 to 6.04 µM | > 11.3 µM | 1.01 to 6.04 µM | > 11.3 µM | 1.01 to 6.04 µM | 6.04 to 8.81 µM | > 11.3 µM | > 11.3 µM | – | 1.01 to 6.04 µM | – | – | – | – | – | –
COc1cc(Nc2ncnc(Nc3cc(OC)c(OC)c(OC)c3)n2)cc(OC)n1 [Compound 253] | 0.965 to 5.79 µM | > 10.9 µM | > 10.9 µM | – | – | – | > 10.9 µM | > 10.9 µM | > 10.9 µM | – | – | – | – | – | – | – | –
COc1ccc(Nc2ncnc(Nc3cc(OC)c(OC)c(OC)c3)n2)cn1 [Compound 28] | – | – | – | – | – | – | – | – | – | – | – | A (A<0.4 ug/mL) | B (B>0.4 and <2.4 ug/mL) | E (E>4.5 ug/mL) | B (B>0.4 and <2.4 ug/mL) | E (E>4.5 ug/mL) | E (E>4.5 ug/mL)
COc1ccc(Nc2ncnc(Nc3ccc(Oc4ccccc4)cc3)n2)cc1OC [Compound 929] | 0.963 to 5.78 µM | – | < 0.963 µM | > 10.8 µM | > 10.8 µM | > 10.8 µM | 8.42 to 10.8 µM | 0.963 to 5.78 µM | > 10.8 µM | 0.963 to 5.78 µM | – | – | – | – | – | – | –
COc1cc(Nc2ncnc(-n3c(Nc4ccccc4)nc4ccccc43)n2)cc(OC)c1OC [Compound 336] | – | > 9.58 µM | > 9.58 µM | < 0.852 µM | < 0.852 µM | < 0.852 µM | > 9.58 µM | > 9.58 µM | > 9.58 µM | > 9.58 µM | – | – | – | – | – | – | –
COc1cc(Nc2ncnc(N3CCCCC3)n2)cc(OC)c1OC [Compound 207] | 1.16 to 6.95 µM | – | > 13 µM | > 13 µM | > 13 µM | 1.16 to 6.95 µM | > 13 µM | > 13 µM | > 13 µM | – | – | – | – | – | – | – | –
COc1cc(Nc2ncnc(-n3c(N)nc4ccccc43)n2)ccc1OCCn1ccnn1 [Compound 324] | < 0.9 µM | > 10.1 µM | > 10.1 µM | > 10.1 µM | < 0.9 µM | < 0.9 µM | < 0.9 µM | 0.9 to 5.4 µM | > 10.1 µM | – | – | – | – | – | – | – | –
Cc1cccc(Nc2ncnc(Nc3cccc(Br)c3)n2)c1 [Compound 109] | 6.74 to 9.83 µM | – | > 12.6 µM | > 12.6 µM | – | – | > 12.6 µM | > 12.6 µM | > 12.6 µM | > 12.6 µM | 6.74 to 9.83 µM | – | – | – | – | – | –
COc1cc(Nc2ncnc(-n3cc(C)c4ccccc43)n2)cc(OC)c1OC [Compound 323] | < 1.02 µM | > 11.5 µM | 8.94 to 11.5 µM | < 1.02 µM | > 11.5 µM | 6.13 to 8.94 µM | > 11.5 µM | > 11.5 µM | > 11.5 µM | – | – | – | – | – | – | – | –
COc1ccc(Nc2ncnc(Nc3ccc(N(C)C)cc3)n2)cc1OC [Compound 114] | < 1.09 µM | – | > 12.3 µM | > 12.3 µM | > 12.3 µM | > 12.3 µM | 6.55 to 9.55 µM | > 12.3 µM | > 12.3 µM | – | – | – | – | – | – | – | –
COCCOc1ccc(Nc2ncnc(Nc3cc(-c4ccco4)n[nH]3)n2)cc1OCCOC [Compound 328] | < 0.856 µM | 5.13 to 7.49 µM | < 0.856 µM | 0.856 to 5.13 µM | 0.856 to 5.13 µM | < 0.856 µM | < 0.856 µM | 0.856 to 5.13 µM | 5.13 to 7.49 µM | – | – | – | – | – | – | – | –
COc1cc(Nc2ncnc(Nc3ccc4c(c3)OCO4)n2)cc(OC)c1OC [Compound 252] | < 1.01 µM | 1.01 to 6.04 µM | > 11.3 µM | 1.01 to 6.04 µM | 1.01 to 6.04 µM | < 1.01 µM | < 1.01 µM | 6.04 to 8.81 µM | > 11.3 µM | – | – | – | – | – | – | – | –
COc1ccc(Nc2ncnc(Nc3cc(OC)c(OC)c(OC)c3)n2)cc1OC [Compound 36] | < 0.968 µM | > 10.9 µM | > 10.9 µM | < 0.968 µM | > 10.9 µM | < 0.968 µM | > 10.9 µM | > 10.9 µM | > 10.9 µM | – | – | – | – | – | – | – | –
COc1ccc(N(C)c2ncnc(Nc3cc(OC)c(OC)c(OC)c3)n2)cc1 [Compound 106] | < 1.01 µM | – | 1.01 to 6.04 µM | < 1.01 µM | 1.01 to 6.04 µM | < 1.01 µM | 6.04 to 8.81 µM | > 11.3 µM | > 11.3 µM | 6.04 to 8.81 µM | – | – | – | – | – | – | –
COc1ccc(Nc2ncnc(-n3c(N)nc4ccccc43)n2)cc1O [Compound 286] | < 1.14 µM | > 12.9 µM | 1.14 to 6.87 µM | 1.14 to 6.87 µM | < 1.14 µM | < 1.14 µM | < 1.14 µM | 1.14 to 6.87 µM | 6.87 to 10 µM | – | – | – | – | – | – | – | –
COc1cc(Nc2ncnc(-c3ccccc3)n2)cc(OC)c1OC [Compound 970] | < 1.18 µM | 10.3 to 13.3 µM | > 13.3 µM | 7.09 to 10.3 µM | > 13.3 µM | 7.09 to 10.3 µM | > 13.3 µM | > 13.3 µM | > 13.3 µM | – | – | – | – | – | – | – | –

From US7074789B2, “Kinase inhibitors” (Amgen Inc., priority 1999, dated 2006)
